Experimental data reported in US20120101100A1 (priority 2008, published 2012).

Biological target: S. aureus GyrB ATPase (Staphylococcus aureus, UniProt P0A0K8)
Test: S. aureus (SAU) GyrB ATPase inhibition, malachite green phosphate detection (E. coli GyrA + S. aureus GyrB)
Format: biochemical
Details: compound concentration of 1.0 μM unless otherwise noted; average value where assay was carried out more than once; read-out: S. aureus (SAU) GyrB ATPase % Inhibition
Method: Compounds were tested for inhibition of GyrB ATPase activity using an ammonium molybdate/malachite green-based phosphate detection assay (Lanzetta, P. A., L. J. Alvarez, P. S. Reinach, and O. A. Candia, 1979, 100: 95-97). Assays were performed in multiwell plates in 100 μl reactions containing: 50 mM Hepes buffer pH 7.5, 75 mM ammonium acetate, 8.0 mM magnesium chloride, 1.0 mM ethylenediaminetetraacetic acid, 5% glycerol, 2 mM 1,4-Dithio-DL-threitol, 400 nM bovine serum albumin, 5 μg/ml sheared salmon sperm DNA, 1.25 nM E. coli GyrA, 1.25 nM S. aureus GyrB, 500 μM ATP, and compound in dimethylsulfoxide. Reactions were quenched with 150 μl of ammonium molybdate/malachite green detection reagent containing 1.2 mM malachite green hydrochloride, 8.5 mM ammonium molybdate tetrahydrate, and 1 M hydrochloric acid. Plates were read in an absorbance plate reader at 650 nm and percent inhibition values were calculated using dimethylsulfoxide (2%)-containing reactions as 0% inhibition and novobiocin-containing (2 μM) reactions as 100% inhibition controls. Compound potency was based on IC50 measurements determined from reactions performed in the presence of 10 different compound concentrations.

S. aureus GyrB ATPase, sequence (P0A0K8 whole entry): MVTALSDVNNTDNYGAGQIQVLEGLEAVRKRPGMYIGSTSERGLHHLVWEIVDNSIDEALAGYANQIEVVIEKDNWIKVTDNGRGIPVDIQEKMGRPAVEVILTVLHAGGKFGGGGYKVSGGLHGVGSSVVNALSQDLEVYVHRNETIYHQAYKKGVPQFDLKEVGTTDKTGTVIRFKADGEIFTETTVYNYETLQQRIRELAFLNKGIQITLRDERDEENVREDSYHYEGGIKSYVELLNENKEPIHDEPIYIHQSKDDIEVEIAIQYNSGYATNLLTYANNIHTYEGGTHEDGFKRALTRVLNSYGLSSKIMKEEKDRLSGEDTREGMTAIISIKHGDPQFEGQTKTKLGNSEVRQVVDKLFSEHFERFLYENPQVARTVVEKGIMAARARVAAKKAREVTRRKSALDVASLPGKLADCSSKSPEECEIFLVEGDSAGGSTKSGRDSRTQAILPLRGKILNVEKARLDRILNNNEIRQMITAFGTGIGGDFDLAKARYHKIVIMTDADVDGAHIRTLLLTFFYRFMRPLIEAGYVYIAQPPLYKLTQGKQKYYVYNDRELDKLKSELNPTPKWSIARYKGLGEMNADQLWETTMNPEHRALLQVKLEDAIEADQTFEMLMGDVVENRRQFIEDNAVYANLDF
S. aureus GyrB ATPase, sequence (P0AES4 whole entry, further chain): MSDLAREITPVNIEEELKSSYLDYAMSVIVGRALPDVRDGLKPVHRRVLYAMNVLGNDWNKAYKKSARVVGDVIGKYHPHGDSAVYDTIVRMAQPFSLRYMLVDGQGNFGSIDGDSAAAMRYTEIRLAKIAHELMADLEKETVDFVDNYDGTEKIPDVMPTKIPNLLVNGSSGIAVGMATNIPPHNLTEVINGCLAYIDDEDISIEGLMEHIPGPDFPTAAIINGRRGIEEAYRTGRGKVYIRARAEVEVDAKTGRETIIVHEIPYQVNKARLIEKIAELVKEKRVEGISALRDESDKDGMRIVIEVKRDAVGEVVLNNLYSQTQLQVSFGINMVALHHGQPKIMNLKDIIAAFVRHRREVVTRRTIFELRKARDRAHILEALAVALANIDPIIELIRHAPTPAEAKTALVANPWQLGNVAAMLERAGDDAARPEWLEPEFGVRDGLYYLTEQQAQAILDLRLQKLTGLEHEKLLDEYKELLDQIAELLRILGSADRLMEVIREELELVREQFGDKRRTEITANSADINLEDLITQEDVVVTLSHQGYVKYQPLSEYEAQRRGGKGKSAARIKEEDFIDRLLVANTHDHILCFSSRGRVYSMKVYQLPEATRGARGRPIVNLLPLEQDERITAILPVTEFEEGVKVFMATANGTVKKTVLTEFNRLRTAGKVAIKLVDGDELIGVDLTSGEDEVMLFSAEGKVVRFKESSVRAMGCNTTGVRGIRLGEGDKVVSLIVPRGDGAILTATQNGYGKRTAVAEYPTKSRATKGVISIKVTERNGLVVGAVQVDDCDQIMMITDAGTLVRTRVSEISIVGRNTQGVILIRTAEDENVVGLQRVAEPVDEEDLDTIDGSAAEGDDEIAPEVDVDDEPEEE

CCNC(=O)Nc1cc(-c2nc(C(F)(F)F)cs2)c(-c2ccnc(-c3nnc([C@@H]4COCCN4)o3)c2)cn1 [Example 242, (S)-1-ethyl-3-(2′-(5-(morpholin-3-yl)-1,3,4-oxadiazol-2-yl)-4-(4-(trifluoromethyl)thiazol-2-yl)-3,4′-bipyridin-6-yl)urea]
inhibition at 1 µM: 118%

CCNC(=O)Nc1cc(-c2nc(C(F)(F)F)cs2)c(-c2cncc(-c3ccn[nH]3)c2)cn1 [Example 134]
inhibition at 1 µM: 120%

CC(C)NC(=O)Nc1cc(-c2nc(C(F)(F)F)cs2)c(-c2cncc(-c3n[nH]c(=O)o3)c2)cn1 [Example 42, 1-isopropyl-3-(5′-(5-oxo-4,5-dihydro-1,3,4-oxadiazol-2-yl)-4-(4-(trifluoromethyl)thiazol-2-yl)-3,3′-bipyridin-6-yl)urea]
inhibition at 1 µM: 106%

CCNC(=O)Nc1cc(-n2cc(C(F)(F)F)cn2)c(-c2cncc(-c3n[nH]c(=O)o3)c2)cn1 [Example 148]
inhibition at 1 µM: 97%

CCNC(=O)Nc1cc(-c2nc(C3CCCCC3)cs2)c(-c2cncc(-c3n[nH]c(=O)o3)c2)cn1 [Example 211]
inhibition at 1 µM: 109%

CCNC(=O)Nc1cc(-c2ccc(N3CCOCC3)cc2)c(-c2cncc(-c3n[nH]c(=O)o3)c2)cn1 [Example 108, 1-Ethyl-3-(4-(4-morpholinophenyl)-5′-(5-oxo-4,5-dihydro-1,3,4-oxadiazol-2-yl)-3,3′-bipyridin-6-yl)urea]
inhibition at 1 µM: 103%

CCNC(=O)Nc1cc(-c2nc(C(F)(F)F)c(C)s2)c(-c2cc(-c3nnc(C)o3)cnc2OC2CCOCC2)cn1 [Example 142]
inhibition at 1 µM: 96%

CCNC(=O)Nc1cc(-c2nnc(-c3ccccc3)o2)c(-c2ncc(-c3nnc(C)o3)s2)cn1 [Example 230]
inhibition at 1 µM: 91%

CCCNC(=O)Nc1cc(-c2nc(C(F)(F)F)cs2)c(-c2ccnc(-c3nnc(O)o3)c2)cn1 [Example 175, 1-(2′-(5-hydroxy-1,3,4-oxadiazol-2-yl)-4-(4-(trifluoromethyl)thiazol-2-yl)-3,4′-bipyridin-6-yl)-3-propylurea]
inhibition at 1 µM: 93%

CCNC(=O)Nc1cc(-c2nc(-c3ccccn3)cs2)c(-c2cncc(-c3nnc(C)o3)c2)cn1 [Example 104, 1-Ethyl-3-(5′-(5-methyl-1,3,4-oxadiazol-2-yl)-4-(4-(pyridin-2-yl)thiazol-2-yl)-3,3′-bipyridin-6-yl)urea]
inhibition at 1 µM: 98%

CCNC(=O)Nc1cc(-c2nc(C(F)(F)F)cs2)c(-c2cc(-c3n[nH]c(=O)o3)cnc2OC[C@@H](C)O)cn1 [Example 225]
inhibition at 1 µM: 117%

CCNC(=O)Nc1cc(-c2nc(C(F)(F)F)cs2)c(-c2cncc(-c3nn(CCOC)c(=O)o3)c2)cn1 [Example 160]
inhibition at 1 µM: 98%

CCNC(=O)Nc1cc(-c2nc(-c3ccccc3)cs2)c(-c2cc(OCC3CC3)nc(-c3n[nH]c(=O)o3)c2)cn1 [Example 85, 1-(2′-(cyclopropylmethoxy)-6′-(5-oxo-4,5-dihydro-1,3,4-oxadiazol-2-yl)-4-(4-phenylthiazol-2-yl)-3,4′-bipyridin-6-yl)-3-ethylurea]
inhibition at 1 µM: 93%

CCNC(=O)Nc1cc(-c2nc(C(F)(F)F)cs2)c(-c2cncc(-c3n[nH]c(=O)o3)c2)cn1 [Example 6, 1-ethyl-3-(5′-(5-oxo-4,5-dihydro-1,3,4-oxadiazol-2-yl)-4-(4-(trifluoromethyl)thiazol-2-yl)-3,3′-bipyridin-6-yl)urea]
inhibition at 1 µM: 106%

CCNC(=O)Nc1cc(-c2nc(-c3ccccc3)cs2)c(-c2nc(-c3ncccn3)c(-c3n[nH]c(=O)o3)s2)cn1 [Example 199]
inhibition at 1 µM: 94%

CCNC(=O)Nc1cc(-c2nc(C(F)(F)F)cs2)c(-c2cncc(/C(N)=N/O)c2)cn1 [Example 163, 6′-(3-Ethylureido)-N′-hydroxy-4′-(4-(trifluoromethyl)thiazol-2-yl)-3,3′-bipyridine-5-carboximidamide]
inhibition at 1 µM: 96%

CCNC(=O)Nc1cc(-c2nc(C(F)(F)F)cs2)c(-c2cncc(-c3c[nH]c(=O)[nH]c3=O)c2)cn1 [Example 131, 1-(5′-(2,4-Dioxo-1,2,3,4-tetrahydropyrimidin-5-yl)-4-(4-(trifluoromethyl)thiazol-2-yl)-3,3′-bipyridin-6-yl)-3-ethylurea]
inhibition at 1 µM: 93%

CCNC(=O)Nc1cc(-c2nc(C3CC3)cs2)c(-c2cncc(-c3n[nH]c(=O)o3)c2)cn1 [Example 210]
inhibition at 1 µM: 65%

CCNC(=O)Nc1cc(-c2nc(C(F)(F)F)c(C(=O)NC3CC3)s2)c(-c2cncc(-c3n[nH]c(=O)o3)c2)cn1 [Example 65]
inhibition at 1 µM: 94%

CCNC(=O)Nc1cc(-c2nc(C(F)(F)F)cs2)c(-c2ccc3nccnc3c2)cn1 [Example 13]
inhibition at 1 µM: 103%

CCNC(=O)Nc1cc(-c2nc3ccccc3s2)c(-c2cncc(-c3n[nH]c(=O)o3)c2)cn1 [Example 12, 1-(4-(benzo[d]thiazol-2-yl)-5′-(5-oxo-4,5-dihydro-1,3,4-oxadiazol-2-yl)-3,3′-bipyridin-6-yl)-3-ethylurea]
inhibition at 1 µM: 108%

CCNC(=O)Nc1cc(-c2nc(C(F)(F)F)cs2)c(-c2nc(-c3ncccn3)c(-c3n[nH]c(=O)o3)s2)cn1 [Example 36, 1-ethyl-3-(5-(5-(5-oxo-4,5-dihydro-1,3,4-oxadiazol-2-yl)-4-(pyrimidin-2-yl)thiazol-2-yl)-4-(4-(trifluoromethyl)thiazol-2-yl)pyridin-2-yl)urea]
inhibition at 1 µM: 107%

CCNC(=O)Nc1cc(-c2nc(C(F)(F)F)cs2)c(-c2cc(-c3nnc(C)o3)cnc2OCCN(CC)CC)cn1 [Example 115, 1-(2′-(2-(diethylamino)ethoxy)-5′-(5-methyl-1,3,4-oxadiazol-2-yl)-4-(4-(trifluoromethyl)thiazol-2-yl)-3,3′-bipyridin-6-yl)-3-ethylurea]
inhibition at 1 µM: 96%

CCNC(=O)Nc1cc(-c2nc(C(F)(F)F)c(C)s2)c(-c2cncc(-c3n[nH]c(=O)o3)c2)cn1 [Example 145]
inhibition at 1 µM: 100%

CCNC(=O)Nc1cc(-c2nc(C(F)(F)F)cs2)c(-c2ccc(-c3n[nH]c(=O)o3)nn2)cn1 [Example 191]
inhibition at 1 µM: 99%

CCNC(=O)Nc1cc(-c2nc(C(F)(F)F)c(C(=O)NC3CCCCC3)s2)c(-c2cncc(-c3nnc(C)o3)c2)cn1 [Example 70, N-cyclohexyl-2-(6-(3-ethylureido)-5′-(5-methyl-1,3,4-oxadiazol-2-yl)-3,3′-bipyridin-4-yl)-4-(trifluoromethyl)thiazole-5-carboxamide]
inhibition at 1 µM: 96%

CCNC(=O)Nc1cc(-c2nc(C(F)(F)F)c(C(=O)NCCN3CCN(C)CC3)s2)c(-c2cncc(-c3n[nH]c(=O)o3)c2)cn1 [Example 63]
inhibition at 1 µM: 96%

CCNC(=O)Nc1cc(-c2nc(-c3cccc(OC)n3)cs2)c(-c2ccnc(-c3nnc(C)o3)c2)cn1 [Example 249, 1-ethyl-3-(4-(4-(6-methoxypyridin-2-yl)thiazol-2-yl)-2′-(5-methyl-1,3,4-oxadiazol-2-yl)-3,4′-bipyridin-6-yl)urea]
inhibition at 1 µM: 97%

CCNC(=O)Nc1cc(-c2nc(-c3ccccc3)cs2)c(-c2cc(-c3n[nH]c(=O)o3)cnc2CC)cn1 [Example 72, 1-ethyl-3-(2′-ethyl-5′-(5-hydroxy-1,3,4-oxadiazol-2-yl)-4-(4-phenylthiazol-2-yl)-3,3′-bipyridin-6-yl)urea]
inhibition at 1 µM: 95%

CCNC(=O)Nc1cc(-c2nc(C(F)(F)F)cs2)c(-c2cnc(OC)nc2)cn1 [Example 125]
inhibition at 1 µM: 103%

CCNC(=O)Nc1cc(-n2ccc(C(F)(F)F)n2)c(-c2cncc(-c3nnc([C@@H](N)C(C)C)o3)c2)cn1 [Example 165]
inhibition at 1 µM: 98%

CCNC(=O)Nc1cc(-c2nc(C(F)(F)F)cs2)c(-c2ccnc(-c3nnc([C@@H](NC)C(C)C)o3)c2)cn1 [Example 244, (S)-1-ethyl-3-(2′-(5-(2-methyl-1-(methylamino)propyl)-1,3,4-oxadiazol-2-yl)-4-(4-(trifluoromethyl)thiazol-2-yl)-3,4′-bipyridin-6-yl)urea]
inhibition at 1 µM: 96%

CCNC(=O)Nc1cc(-c2nc(-c3cccc(OC)n3)cs2)c(-c2cncc(-c3n[nH]c(=O)o3)c2)cn1 [Example 202]
inhibition at 1 µM: 43%

CCNC(=O)Nc1cc(-c2nc(C(F)(F)F)cs2)c(-c2cc(-c3n[nH]c(=O)o3)cnc2OC2CCNCC2)cn1 [Example 109, 1-Ethyl-3-{5′-(5-oxo-4,5-dihydro-1,3,4-oxadiazol-2-yl)-2′-(piperidin-4-yloxy)-4-[4-(trifluoromethyl)-1,3-thiazol-2-yl]-3,3′-bipyridin-6-yl}urea]
inhibition at 1 µM: 98%

CCNC(=O)Nc1cc(-c2nc(C(F)(F)F)cs2)c(-c2cc(OCCN(C)C)nc(-c3n[nH]c(=O)o3)c2)cn1 [Example 92, 1-(2′-(2-(dimethylamino)ethoxy)-6′-(5-oxo-4,5-dihydro-1,3,4-oxadiazol-2-yl)-4-(4-(trifluoromethyl)thiazol-2-yl)-3,4′-bipyridin-6-yl)-3-ethylurea]
inhibition at 1 µM: 104%

CCNC(=O)Nc1cc(-c2nc(C(F)(F)F)c(CNC3CCCCC3)s2)c(-c2cncc(-c3nnc(C)o3)c2)cn1 [Example 56, 1-(4-(5-((cyclohexylamino)methyl)-4-(trifluoromethyl)thiazol-2-yl)-5′-(5-methyl-1,3,4-oxadiazol-2-yl)-3,3′-bipyridin-6-yl)-3-ethylurea]
inhibition at 1 µM: 96%

CCNC(=O)Nc1cc(-c2cc(C(F)(F)F)nn2C)c(-c2cncc(-c3n[nH]c(=O)o3)c2)cn1 [Example 146]
inhibition at 1 µM: 97%
